Experimental data reported in the NIST ThermoML archive (doi:10.1021/je5005752).
Several values for one entry are separate records, joined by “and”; a condition that tells them apart may be missing. Equal entries are not always repeated. Numbers after ± are expanded uncertainties.

Assays:
[1] = 101 kPa, Liquid; for viscosity: Falling or rolling sphere viscometry; for mass density: Vibrating tube method
[2] = xn = mol fraction of the nth substance listed; details: 101 kPa, Liquid, x2 = 0; for viscosity: Falling or rolling sphere viscometry; for mass density: Vibrating tube method

## CC(C)CO [2-methyl-1-propanol]
[1]; 288.15 K
  viscosity: 4.829 ± 0.1 mPa·s
  mass density: 805.88 ± 0.19 kg/m3
[1]; 293.15 K
  viscosity: 4.052 ± 0.086 mPa·s
  mass density: 802.03 ± 0.19 kg/m3
[1]; 298.15 K
  viscosity: 3.431 ± 0.073 mPa·s
  mass density: 798.16 ± 0.2 kg/m3
[1]; 303.15 K
  viscosity: 2.923 ± 0.062 mPa·s
  mass density: 794.25 ± 0.2 kg/m3
[1]; 308.15 K
  viscosity: 2.505 ± 0.053 mPa·s
  mass density: 790.31 ± 0.2 kg/m3
[1]; 313.15 K
  viscosity: 2.161 ± 0.046 mPa·s
  mass density: 786.31 ± 0.2 kg/m3
[1]; 318.15 K
  viscosity: 1.876 ± 0.04 mPa·s
  mass density: 782.26 ± 0.2 kg/m3
[1]; 323.15 K
  viscosity: 1.652 ± 0.035 mPa·s
  mass density: 778.14 ± 0.2 kg/m3

## CC(C)CO [2-methyl-1-propanol] + CCCC(=O)OCC
[2]; 288.15 K
  viscosity: 4.829 ± 0.1 mPa·s
  mass density: 805.88 ± 0.19 kg/m3
[2]; 293.15 K
  viscosity: 4.052 ± 0.086 mPa·s
  mass density: 802.03 ± 0.19 kg/m3
[2]; 298.15 K
  viscosity: 3.431 ± 0.073 mPa·s
  mass density: 798.16 ± 0.2 kg/m3
[2]; 303.15 K
  viscosity: 2.923 ± 0.062 mPa·s
  mass density: 794.25 ± 0.2 kg/m3
[2]; 308.15 K
  viscosity: 2.505 ± 0.053 mPa·s
  mass density: 790.31 ± 0.2 kg/m3
[2]; 313.15 K
  viscosity: 2.161 ± 0.046 mPa·s
  mass density: 786.31 ± 0.2 kg/m3
[2]; 318.15 K
  viscosity: 1.876 ± 0.04 mPa·s
  mass density: 782.26 ± 0.2 kg/m3
[2]; 323.15 K
  viscosity: 1.652 ± 0.035 mPa·s
  mass density: 778.14 ± 0.2 kg/m3

## CC(C)CCO [3-methylbutan-1-ol]
[1]; 288.15 K
  viscosity: 5.057 ± 0.11 mPa·s
  mass density: 812.29 ± 0.27 kg/m3
[1]; 293.15 K
  viscosity: 4.288 ± 0.094 mPa·s
  mass density: 808.58 ± 0.27 kg/m3
[1]; 298.15 K
  viscosity: 3.671 ± 0.08 mPa·s
  mass density: 804.84 ± 0.27 kg/m3
[1]; 303.15 K
  viscosity: 3.155 ± 0.069 mPa·s
  mass density: 801.09 ± 0.27 kg/m3
[1]; 308.15 K
  viscosity: 2.73 ± 0.06 mPa·s
  mass density: 797.31 ± 0.27 kg/m3
[1]; 313.15 K
  viscosity: 2.375 ± 0.052 mPa·s
  mass density: 793.51 ± 0.27 kg/m3
[1]; 318.15 K
  viscosity: 2.076 ± 0.045 mPa·s
  mass density: 789.67 ± 0.27 kg/m3
[1]; 323.15 K
  viscosity: 1.841 ± 0.04 mPa·s
  mass density: 785.79 ± 0.27 kg/m3

## CC(C)CCO [3-methylbutan-1-ol] + CCCC(=O)OCC
[2]; 288.15 K
  viscosity: 5.057 ± 0.11 mPa·s
  mass density: 812.29 ± 0.27 kg/m3
[2]; 293.15 K
  viscosity: 4.288 ± 0.094 mPa·s
  mass density: 808.58 ± 0.27 kg/m3
[2]; 298.15 K
  viscosity: 3.671 ± 0.08 mPa·s
  mass density: 804.84 ± 0.27 kg/m3
[2]; 303.15 K
  viscosity: 3.155 ± 0.069 mPa·s
  mass density: 801.09 ± 0.27 kg/m3
[2]; 308.15 K
  viscosity: 2.73 ± 0.06 mPa·s
  mass density: 797.31 ± 0.27 kg/m3
[2]; 313.15 K
  viscosity: 2.375 ± 0.052 mPa·s
  mass density: 793.51 ± 0.27 kg/m3
[2]; 318.15 K
  viscosity: 2.076 ± 0.045 mPa·s
  mass density: 789.67 ± 0.27 kg/m3
[2]; 323.15 K
  viscosity: 1.841 ± 0.04 mPa·s
  mass density: 785.79 ± 0.27 kg/m3

## CCCCO [butan-1-ol]
[1]; 288.15 K
  viscosity: 3.365 ± 0.072 mPa·s
  mass density: 813.46 ± 0.2 kg/m3
[1]; 293.15 K
  viscosity: 2.913 ± 0.062 mPa·s
  mass density: 809.66 ± 0.2 kg/m3
[1]; 298.15 K
  viscosity: 2.563 ± 0.055 mPa·s
  mass density: 805.84 ± 0.2 kg/m3
[1]; 303.15 K
  viscosity: 2.257 ± 0.048 mPa·s
  mass density: 801.99 ± 0.21 kg/m3
[1]; 308.15 K
  viscosity: 1.994 ± 0.043 mPa·s
  mass density: 798.12 ± 0.21 kg/m3
[1]; 313.15 K
  viscosity: 1.779 ± 0.038 mPa·s
  mass density: 794.22 ± 0.21 kg/m3
[1]; 318.15 K
  viscosity: 1.576 ± 0.034 mPa·s
  mass density: 790.28 ± 0.21 kg/m3
[1]; 323.15 K
  viscosity: 1.422 ± 0.03 mPa·s
  mass density: 786.29 ± 0.21 kg/m3

## CCCCO [butan-1-ol] + CCCC(=O)OCC
[2]; 288.15 K
  viscosity: 3.365 ± 0.072 mPa·s
  mass density: 813.46 ± 0.2 kg/m3
[2]; 293.15 K
  viscosity: 2.913 ± 0.062 mPa·s
  mass density: 809.66 ± 0.2 kg/m3
[2]; 298.15 K
  viscosity: 2.563 ± 0.055 mPa·s
  mass density: 805.84 ± 0.2 kg/m3
[2]; 303.15 K
  viscosity: 2.257 ± 0.048 mPa·s
  mass density: 801.99 ± 0.21 kg/m3
[2]; 308.15 K
  viscosity: 1.994 ± 0.043 mPa·s
  mass density: 798.12 ± 0.21 kg/m3
[2]; 313.15 K
  viscosity: 1.779 ± 0.038 mPa·s
  mass density: 794.22 ± 0.21 kg/m3
[2]; 318.15 K
  viscosity: 1.576 ± 0.034 mPa·s
  mass density: 790.28 ± 0.21 kg/m3
[2]; 323.15 K
  viscosity: 1.422 ± 0.03 mPa·s
  mass density: 786.29 ± 0.21 kg/m3

## CCCC(=O)OCC [ethyl butanoate]
[1]; 288.15 K
  viscosity: 0.7224 ± 0.016 mPa·s
  mass density: 884.16 ± 0.27 kg/m3
[1]; 293.15 K
  viscosity: 0.6808 ± 0.015 mPa·s
  mass density: 878.9 ± 0.27 kg/m3
[1]; 298.15 K
  viscosity: 0.643 ± 0.014 mPa·s
  mass density: 873.62 ± 0.27 kg/m3
[1]; 303.15 K
  viscosity: 0.6072 ± 0.013 mPa·s
  mass density: 868.33 ± 0.27 kg/m3
[1]; 308.15 K
  viscosity: 0.5736 ± 0.013 mPa·s
  mass density: 863.02 ± 0.27 kg/m3
[1]; 313.15 K
  viscosity: 0.5424 ± 0.012 mPa·s and 0.5425 ± 0.012 mPa·s
  mass density: 857.7 ± 0.27 kg/m3
[1]; 318.15 K
  viscosity: 0.5132 ± 0.011 mPa·s
  mass density: 852.36 ± 0.27 kg/m3
[1]; 323.15 K
  viscosity: 0.487 ± 0.011 mPa·s
  mass density: 847 ± 0.27 kg/m3

## CCCCCCO [hexan-1-ol]
[1]; 288.15 K
  viscosity: 6.308 ± 0.14 mPa·s
  mass density: 822.26 ± 0.27 kg/m3
[1]; 293.15 K
  viscosity: 5.332 ± 0.12 mPa·s
  mass density: 818.7 ± 0.27 kg/m3
[1]; 298.15 K
  viscosity: 4.538 ± 0.099 mPa·s
  mass density: 815.12 ± 0.27 kg/m3
[1]; 303.15 K
  viscosity: 3.896 ± 0.085 mPa·s
  mass density: 811.52 ± 0.27 kg/m3
[1]; 308.15 K
  viscosity: 3.361 ± 0.073 mPa·s
  mass density: 807.89 ± 0.27 kg/m3
[1]; 313.15 K
  viscosity: 2.917 ± 0.064 mPa·s
  mass density: 804.25 ± 0.27 kg/m3
[1]; 318.15 K
  viscosity: 2.546 ± 0.056 mPa·s
  mass density: 800.56 ± 0.27 kg/m3
[1]; 323.15 K
  viscosity: 2.241 ± 0.049 mPa·s
  mass density: 796.85 ± 0.27 kg/m3

## CCCCCCO [hexan-1-ol] + CCCC(=O)OCC
[2]; 288.15 K
  viscosity: 6.308 ± 0.14 mPa·s
  mass density: 822.26 ± 0.27 kg/m3
[2]; 293.15 K
  viscosity: 5.332 ± 0.12 mPa·s
  mass density: 818.7 ± 0.27 kg/m3
[2]; 298.15 K
  viscosity: 4.538 ± 0.099 mPa·s
  mass density: 815.12 ± 0.27 kg/m3
[2]; 303.15 K
  viscosity: 3.896 ± 0.085 mPa·s
  mass density: 811.52 ± 0.27 kg/m3
[2]; 308.15 K
  viscosity: 3.361 ± 0.073 mPa·s
  mass density: 807.89 ± 0.27 kg/m3
[2]; 313.15 K
  viscosity: 2.917 ± 0.064 mPa·s
  mass density: 804.25 ± 0.27 kg/m3
[2]; 318.15 K
  viscosity: 2.546 ± 0.056 mPa·s
  mass density: 800.56 ± 0.27 kg/m3
[2]; 323.15 K
  viscosity: 2.241 ± 0.049 mPa·s
  mass density: 796.85 ± 0.27 kg/m3

## CCCO [propan-1-ol]
[1]; 288.15 K
  viscosity: 2.514 ± 0.054 mPa·s
  mass density: 807.75 ± 0.2 kg/m3
[1]; 293.15 K
  viscosity: 2.208 ± 0.047 mPa·s
  mass density: 803.77 ± 0.21 kg/m3
[1]; 298.15 K
  viscosity: 1.95 ± 0.042 mPa·s
  mass density: 799.76 ± 0.21 kg/m3
[1]; 303.15 K
  viscosity: 1.727 ± 0.037 mPa·s
  mass density: 795.72 ± 0.21 kg/m3
[1]; 308.15 K
  viscosity: 1.542 ± 0.033 mPa·s
  mass density: 791.64 ± 0.21 kg/m3
[1]; 313.15 K
  viscosity: 1.378 ± 0.029 mPa·s
  mass density: 787.52 ± 0.21 kg/m3
[1]; 318.15 K
  viscosity: 1.236 ± 0.026 mPa·s
  mass density: 783.36 ± 0.21 kg/m3
[1]; 323.15 K
  viscosity: 1.124 ± 0.024 mPa·s
  mass density: 779.14 ± 0.21 kg/m3

## CCCO [propan-1-ol] + CCCC(=O)OCC
[2]; 288.15 K
  viscosity: 2.514 ± 0.054 mPa·s
  mass density: 807.75 ± 0.2 kg/m3
[2]; 293.15 K
  viscosity: 2.208 ± 0.047 mPa·s
  mass density: 803.77 ± 0.21 kg/m3
[2]; 298.15 K
  viscosity: 1.95 ± 0.042 mPa·s
  mass density: 799.76 ± 0.21 kg/m3
[2]; 303.15 K
  viscosity: 1.727 ± 0.037 mPa·s
  mass density: 795.72 ± 0.21 kg/m3
[2]; 308.15 K
  viscosity: 1.542 ± 0.033 mPa·s
  mass density: 791.64 ± 0.21 kg/m3
[2]; 313.15 K
  viscosity: 1.378 ± 0.029 mPa·s
  mass density: 787.52 ± 0.21 kg/m3
[2]; 318.15 K
  viscosity: 1.236 ± 0.026 mPa·s
  mass density: 783.36 ± 0.21 kg/m3
[2]; 323.15 K
  viscosity: 1.124 ± 0.024 mPa·s
  mass density: 779.14 ± 0.21 kg/m3
